Reference: paper PMC7026418, “The kinase polypharmacology landscape of clinical PARP inhibitors” (Scientific Reports, 2020)
Where two headings read alike, the source gives them in different places. Each block holds one molecule with its values, some of them ahead of it.

Key:
Test in all cases: biochemical
Parameters in all cases: DiscoveRx KINOMEscan active site-directed competition binding; percent of control kinase bound to immobilised ligand
[1] = molecular target: T1, ABL1(M351T)-phosphorylated (Homo sapiens, UniProt P00519, M351T)
T1 construct: phosphorylated

RET(M918T) = RET(M918T) (Homo sapiens, UniProt P07949, M918T)
AURKB = AURKB (Homo sapiens, UniProt Q96GD4)
FLT3(N841I) = molecular target: T2, FLT3(N841I) (Homo sapiens, UniProt P36888, N841I)
T2 sequence (P36888 1-993 N841I): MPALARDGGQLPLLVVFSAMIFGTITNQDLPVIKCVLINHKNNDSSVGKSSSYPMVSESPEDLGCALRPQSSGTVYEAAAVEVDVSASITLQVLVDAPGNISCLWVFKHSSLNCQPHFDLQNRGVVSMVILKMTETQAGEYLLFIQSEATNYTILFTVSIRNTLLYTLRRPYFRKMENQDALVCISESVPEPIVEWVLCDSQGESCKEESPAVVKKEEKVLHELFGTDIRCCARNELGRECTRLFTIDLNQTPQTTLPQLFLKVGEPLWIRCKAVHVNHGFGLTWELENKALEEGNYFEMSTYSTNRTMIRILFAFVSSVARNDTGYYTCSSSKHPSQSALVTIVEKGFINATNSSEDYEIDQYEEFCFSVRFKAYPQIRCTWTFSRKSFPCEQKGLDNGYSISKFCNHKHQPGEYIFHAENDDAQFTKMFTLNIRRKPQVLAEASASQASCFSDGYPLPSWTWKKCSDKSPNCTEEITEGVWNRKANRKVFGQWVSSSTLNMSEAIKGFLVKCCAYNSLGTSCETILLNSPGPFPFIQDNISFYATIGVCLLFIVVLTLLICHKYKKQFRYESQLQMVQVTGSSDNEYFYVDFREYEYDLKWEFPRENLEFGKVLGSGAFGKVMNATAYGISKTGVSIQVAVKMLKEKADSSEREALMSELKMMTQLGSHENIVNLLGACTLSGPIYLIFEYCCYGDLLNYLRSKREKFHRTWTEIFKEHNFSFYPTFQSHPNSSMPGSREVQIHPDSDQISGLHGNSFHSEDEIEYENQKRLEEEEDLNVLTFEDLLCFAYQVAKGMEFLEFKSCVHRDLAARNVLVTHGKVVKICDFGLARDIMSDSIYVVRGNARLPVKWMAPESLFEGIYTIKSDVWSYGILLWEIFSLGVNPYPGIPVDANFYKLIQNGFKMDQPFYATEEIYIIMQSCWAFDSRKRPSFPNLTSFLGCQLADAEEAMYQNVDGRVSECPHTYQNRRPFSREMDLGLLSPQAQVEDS

KIT(V559D,T670I) = KIT(V559D,T670I) (Homo sapiens, UniProt P10721, T670I/V559D)
PIM1 = PIM1 (Homo sapiens, UniProt P11309)
CDC2L2 = molecular target: T3, CDC2L2 (Homo sapiens, UniProt Q9UQ88)
T3 construct: gene CDK11A
T3 sequence (Q9UQ88 1-783): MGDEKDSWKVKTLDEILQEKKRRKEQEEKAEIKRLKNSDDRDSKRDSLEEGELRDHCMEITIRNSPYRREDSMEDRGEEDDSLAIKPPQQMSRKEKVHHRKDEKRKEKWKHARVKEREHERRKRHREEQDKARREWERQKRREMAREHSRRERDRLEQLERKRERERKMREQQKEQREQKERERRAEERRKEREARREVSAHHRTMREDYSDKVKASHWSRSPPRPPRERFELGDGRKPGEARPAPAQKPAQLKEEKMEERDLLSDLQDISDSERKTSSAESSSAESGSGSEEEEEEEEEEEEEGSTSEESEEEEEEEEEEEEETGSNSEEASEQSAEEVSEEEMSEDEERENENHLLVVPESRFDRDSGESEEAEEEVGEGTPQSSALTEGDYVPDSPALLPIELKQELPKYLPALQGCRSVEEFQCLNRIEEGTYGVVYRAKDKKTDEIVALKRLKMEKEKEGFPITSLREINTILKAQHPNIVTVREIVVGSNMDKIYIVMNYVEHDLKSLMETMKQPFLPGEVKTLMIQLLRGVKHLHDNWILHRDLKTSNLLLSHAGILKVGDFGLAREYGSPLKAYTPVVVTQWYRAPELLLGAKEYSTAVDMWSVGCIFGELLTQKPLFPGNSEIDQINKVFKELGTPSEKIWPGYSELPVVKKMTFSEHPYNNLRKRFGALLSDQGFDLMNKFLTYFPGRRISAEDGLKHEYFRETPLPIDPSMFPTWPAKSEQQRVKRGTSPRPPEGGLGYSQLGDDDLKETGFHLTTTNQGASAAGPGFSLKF

CAMK1B = molecular target: T4, CAMK1B (Homo sapiens, UniProt Q6P2M8)
T4 construct: gene PNCK

[2] = read-out: Niraparib (MK-4827) / %Ctrl @ 10000nM
[3] = read-out: Rucaparib / %Ctrl @ 10000nM, binding competition, % of control
[4] = read-out: Olaparib / %Ctrl @ 10000nM
[5] = read-out: Talazoparib (BMN 673) / %Ctrl @ 10000nM

RET(M918T), sequence (P07949 whole entry M918T): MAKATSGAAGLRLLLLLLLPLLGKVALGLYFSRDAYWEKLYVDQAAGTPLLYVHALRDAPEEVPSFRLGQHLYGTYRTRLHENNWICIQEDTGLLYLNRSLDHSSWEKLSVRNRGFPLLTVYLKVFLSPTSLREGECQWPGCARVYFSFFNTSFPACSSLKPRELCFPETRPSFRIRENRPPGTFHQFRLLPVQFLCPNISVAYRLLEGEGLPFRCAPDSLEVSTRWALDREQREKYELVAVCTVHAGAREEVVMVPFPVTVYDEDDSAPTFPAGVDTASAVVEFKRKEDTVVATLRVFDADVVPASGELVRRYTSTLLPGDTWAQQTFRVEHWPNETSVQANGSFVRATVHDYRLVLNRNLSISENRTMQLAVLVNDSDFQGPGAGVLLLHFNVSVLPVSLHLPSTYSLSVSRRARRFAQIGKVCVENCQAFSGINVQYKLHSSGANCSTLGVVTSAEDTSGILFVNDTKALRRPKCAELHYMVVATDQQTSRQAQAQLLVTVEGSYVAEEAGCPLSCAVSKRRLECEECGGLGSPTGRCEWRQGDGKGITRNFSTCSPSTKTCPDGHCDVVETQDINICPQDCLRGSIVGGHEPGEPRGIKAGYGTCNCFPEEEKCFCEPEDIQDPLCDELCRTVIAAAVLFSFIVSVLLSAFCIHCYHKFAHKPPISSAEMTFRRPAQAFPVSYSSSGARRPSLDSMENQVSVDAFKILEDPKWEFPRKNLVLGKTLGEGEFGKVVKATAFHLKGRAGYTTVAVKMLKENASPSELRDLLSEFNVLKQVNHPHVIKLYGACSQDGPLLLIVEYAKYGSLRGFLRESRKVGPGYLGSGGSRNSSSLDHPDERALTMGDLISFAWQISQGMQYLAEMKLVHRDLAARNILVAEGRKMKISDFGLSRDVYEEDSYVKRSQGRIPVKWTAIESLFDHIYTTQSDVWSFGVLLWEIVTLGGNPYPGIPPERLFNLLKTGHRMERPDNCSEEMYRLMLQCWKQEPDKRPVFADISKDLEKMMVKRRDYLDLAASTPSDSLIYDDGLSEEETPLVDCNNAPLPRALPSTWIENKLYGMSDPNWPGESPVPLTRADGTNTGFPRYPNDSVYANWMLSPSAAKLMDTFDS
AURKB, sequence (Q96GD4 whole entry): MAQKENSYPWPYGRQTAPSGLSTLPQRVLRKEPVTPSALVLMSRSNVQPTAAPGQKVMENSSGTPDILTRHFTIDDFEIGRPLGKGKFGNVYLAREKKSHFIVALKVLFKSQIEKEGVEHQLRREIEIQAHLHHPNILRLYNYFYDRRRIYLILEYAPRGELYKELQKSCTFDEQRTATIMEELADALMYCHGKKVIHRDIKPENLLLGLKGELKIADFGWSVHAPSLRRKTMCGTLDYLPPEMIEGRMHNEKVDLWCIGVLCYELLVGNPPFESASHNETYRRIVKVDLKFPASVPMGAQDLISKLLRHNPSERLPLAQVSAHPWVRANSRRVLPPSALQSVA
KIT(V559D,T670I), sequence (P10721 whole entry V559D/T670I): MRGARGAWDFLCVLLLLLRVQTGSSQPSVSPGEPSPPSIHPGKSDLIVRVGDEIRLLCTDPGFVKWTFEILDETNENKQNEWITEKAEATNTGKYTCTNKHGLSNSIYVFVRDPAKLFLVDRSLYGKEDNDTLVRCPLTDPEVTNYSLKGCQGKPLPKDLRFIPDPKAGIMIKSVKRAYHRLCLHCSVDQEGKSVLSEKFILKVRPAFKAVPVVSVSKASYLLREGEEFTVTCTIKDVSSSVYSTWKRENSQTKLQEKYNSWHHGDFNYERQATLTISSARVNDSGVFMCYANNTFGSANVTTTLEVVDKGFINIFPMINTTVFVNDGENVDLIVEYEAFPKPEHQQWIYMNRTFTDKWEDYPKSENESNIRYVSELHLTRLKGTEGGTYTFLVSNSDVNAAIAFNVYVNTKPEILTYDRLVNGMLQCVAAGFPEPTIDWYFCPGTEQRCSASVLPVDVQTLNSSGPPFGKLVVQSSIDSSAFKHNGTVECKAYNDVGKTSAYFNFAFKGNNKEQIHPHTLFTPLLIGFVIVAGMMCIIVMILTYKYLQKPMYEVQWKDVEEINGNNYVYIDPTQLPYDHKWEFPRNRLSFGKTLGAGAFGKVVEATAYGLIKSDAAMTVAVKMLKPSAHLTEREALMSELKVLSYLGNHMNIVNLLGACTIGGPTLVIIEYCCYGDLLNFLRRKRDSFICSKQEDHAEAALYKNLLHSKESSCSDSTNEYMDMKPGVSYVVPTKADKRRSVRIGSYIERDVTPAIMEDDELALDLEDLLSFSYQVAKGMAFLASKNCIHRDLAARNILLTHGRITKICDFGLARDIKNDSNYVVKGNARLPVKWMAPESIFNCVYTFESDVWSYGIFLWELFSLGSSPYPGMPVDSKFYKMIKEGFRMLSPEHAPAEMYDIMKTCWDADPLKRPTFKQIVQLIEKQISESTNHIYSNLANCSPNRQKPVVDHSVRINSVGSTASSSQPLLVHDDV
PIM1, sequence (P11309 whole entry): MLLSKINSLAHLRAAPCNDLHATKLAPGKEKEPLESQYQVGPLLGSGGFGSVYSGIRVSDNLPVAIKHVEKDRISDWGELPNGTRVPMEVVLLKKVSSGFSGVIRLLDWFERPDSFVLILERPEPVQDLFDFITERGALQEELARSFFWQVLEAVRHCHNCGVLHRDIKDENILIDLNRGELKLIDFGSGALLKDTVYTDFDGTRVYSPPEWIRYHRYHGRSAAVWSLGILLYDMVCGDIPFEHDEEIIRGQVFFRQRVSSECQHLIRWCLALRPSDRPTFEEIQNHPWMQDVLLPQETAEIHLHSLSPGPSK
T4 sequence (Q6P2M8 whole entry): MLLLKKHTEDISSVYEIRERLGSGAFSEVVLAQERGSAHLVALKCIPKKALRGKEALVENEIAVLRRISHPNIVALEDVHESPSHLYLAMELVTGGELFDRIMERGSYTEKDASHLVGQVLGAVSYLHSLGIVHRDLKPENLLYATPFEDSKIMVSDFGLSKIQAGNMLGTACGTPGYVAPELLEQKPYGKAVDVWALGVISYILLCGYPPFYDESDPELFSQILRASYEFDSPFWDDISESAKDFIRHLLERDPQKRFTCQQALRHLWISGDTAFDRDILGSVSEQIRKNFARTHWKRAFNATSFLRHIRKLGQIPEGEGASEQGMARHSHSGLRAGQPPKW

SMILES: NC(=O)c1cccc2cn(-c3ccc([C@@H]4CCCNC4)cc3)nc12 [Niraparib]
percent of control binding at 10 µM [1, 2]: 100%
percent of control binding at 10 µM (RET(M918T); [2]): 95%
percent of control binding at 10 µM (AURKB; [2]): 8.1%
percent of control binding at 10 µM (FLT3(N841I); [2]): 77%
percent of control binding at 10 µM (KIT(V559D,T670I); [2]): 97%
percent of control binding at 10 µM (PIM1; [2]): 18%
percent of control binding at 10 µM (CDC2L2; [2]): 83%
percent of control binding at 10 µM (CAMK1B; [2]): 94%

percent of control binding at 10 µM [1, 3]: 75%
percent of control binding at 10 µM (RET(M918T); [3]): 97%
percent of control binding at 10 µM (AURKB; [3]): 100%
Rucaparib / %Ctrl @ 10000nM (FLT3(N841I); binding competition, % of control): 64%
percent of control binding at 10 µM (KIT(V559D,T670I); [3]): 91%
percent of control binding at 10 µM (PIM1; [3]): 2.8%
percent of control binding at 10 µM (CDC2L2; [3]): 88%
percent of control binding at 10 µM (CAMK1B; [3]): 100%
SMILES: CNCc1ccc(-c2[nH]c3cc(F)cc4c3c2CCNC4=O)cc1 [Rucaparib]

percent of control binding at 10 µM [1, 4]: 91%
percent of control binding at 10 µM (RET(M918T); [4]): 100%
percent of control binding at 10 µM (AURKB; [4]): 100%
percent of control binding at 10 µM (FLT3(N841I); [4]): 95%
percent of control binding at 10 µM (KIT(V559D,T670I); [4]): 92%
percent of control binding at 10 µM (PIM1; [4]): 96%
percent of control binding at 10 µM (CDC2L2; [4]): 100%
percent of control binding at 10 µM (CAMK1B; [4]): 97%
SMILES: O=C(c1cc(Cc2n[nH]c(=O)c3ccccc23)ccc1F)N1CCN(C(=O)C2CC2)CC1 [Olaparib]

percent of control binding at 10 µM [1, 5]: 98%
percent of control binding at 10 µM (RET(M918T); [5]): 96%
percent of control binding at 10 µM (AURKB; [5]): 73%
percent of control binding at 10 µM (FLT3(N841I); [5]): 100%
percent of control binding at 10 µM (KIT(V559D,T670I); [5]): 100%
percent of control binding at 10 µM (PIM1; [5]): 95%
percent of control binding at 10 µM (CDC2L2; [5]): 100%
percent of control binding at 10 µM (CAMK1B; [5]): 100%
SMILES: Cn1ncnc1[C@H]1c2n[nH]c(=O)c3cc(F)cc(c23)N[C@@H]1c1ccc(F)cc1 [Talazoparib]
